Laboratory results taken from US9139574B2, “Tumor targeted drug combretastatin A4 derivative” (Nanjing Sanhome Pharmaceutical Co., Ltd., priority 2011, dated 2015).

Tests used:
K562 = experiment: MTT assay of anti-tumor activity, K562; assay type: cell-based; conditions: K562 cells
Protocol: (§1) The cells were digested and counted. The cell suspension was prepared in a concentration of 5×10^4 cells/ml. 100 μL of the cell suspension per well was added into 96-well plates (5×10^3 cells per well). The 96-well plates were placed in a 5% CO2 incubator at 37° C. for 24 hours. The drugs were diluted with the complete medium to the desired concentrations. 100 μL of the corresponding drug-containing medium was added into each well. Negative control group, vehicle control group and positive control group were set. The 96-well plates were placed in 5% CO2 incubator at 37° C. for 72 hours. The 96-well plates were subjected to a MTT assay, and measured OD value at λ=490 nm. The measurement procedure comprises adding 20 μL MTT (5 mg/ml) for each well, incubating for 4 hours in an incubator, discarding the medium, dissolving by adding 150 μL DMSO into each well, mixing uniformly by rocking gently for 10 minutes on a shaker, reading OD value of each well in a microplate reader at λ=490 nm. The inhibition rate was calculated, the results were recorded, and the anti-tumor activity was assessed.

MCF-7 = experiment: MTT assay of anti-tumor activity, MCF-7; assay type: cell-based; conditions: MCF-7 cells
Protocol: as §1

HCT-116 = experiment: MTT assay of anti-tumor activity, HCT-116; assay type: cell-based; conditions: HCT-116 cells
Protocol: as §1

DU-145 = experiment: MTT assay of anti-tumor activity, DU-145; assay type: cell-based; conditions: DU-145 cells
Protocol: as §1

NCI-H460 = experiment: MTT assay of anti-tumor activity, NCI-H460; assay type: cell-based; conditions: NCI-H460 cells
Protocol: as §1

Row | SMILES | melting point [°C] | other results
1 | COc1cc(OC)cc(-c2nc[nH]c2-c2ccc(OC)c(N)c2O)c1 [Compound C146, 4-(3,5-dimethoxyphenyl)-5-(2-hydroxy-3-amino-4-methoxyphenyl)imidazole] | – | IC50 (K562; Homo sapiens, K562, 72 h): 6.1 nM; IC50 (MCF-7; Homo sapiens, MCF7, 72 h): 9.3 nM; IC50 (HCT-116; Homo sapiens, HCT-116, 72 h): 289 nM; IC50 (DU-145; Homo sapiens, DU-145, 72 h): > 300 nM
2 | COc1ccc(-c2ocnc2-c2cc(OC)c(OC(F)(F)F)c(OC)c2)cc1N [CN23, 4-(3,5-dimethoxy-4-trifluoromethoxyphenyl)-5-(3-amino-4-methoxyphenyl)oxazole] | 167.9 to 170.2 | –
3 | COc1ccc(-c2ocnc2-c2cc(OC)c(Br)c(OC)c2)cc1O [CN02, 4-(3,5-dimethoxy-4-bromophenyl)-5-(3-hydroxy-4-methoxyphenyl)oxazole] | 184.7 to 187 | –
4 | COc1ccc(-c2ocnc2-c2cc(OC)c(O)c(OC)c2)cc1F [CN03, 4-(3,5-dimethoxy-4-hydroxyphenyl)-5-(3-fluoro-4-methoxyphenyl)oxazole] | 161.3 to 162.8 | –
5 | COc1cc(OC)cc(-c2ncoc2-c2cc(N)c(OC)cc2N)c1 [Compound C119, 4-(3,5-dimethoxyphenyl)-5-(2,5-diamino-4-methoxyphenyl)oxazole] | 149.9 to 151.6 | –
6 | COc1cc(-c2ncn(-c3ccc(C(F)(F)F)cc3)c2-c2ccc(N(C)C)cc2)cc(OC)c1OC [Compound C092, 5-(4-dimethylaminophenyl)-4-(3,4,5-trimethoxyphenyl)-1-(4-trifluoromethylphenyl)imidazole] | 215 to 217 | –
7 | COc1ccc(-c2ocnc2-c2cc(OC)c(O)c(OC)c2)cc1O [CN06, 4-(3,5-dimethoxy-4-hydroxyphenyl)-5-(3-hydroxy-4-methoxyphenyl)oxazole] | 144.3 to 145.5 | –
8 | COc1cc(OC)cc(-c2nc[nH]c2-c2ccc(OC)c(O)c2)c1.O=P([O-])([O-])O.[Na+].[Na+] | 169.7 to 172.1 | –
9 | COc1cc(OC)cc(-c2ncoc2-c2ccc3c(c2)NCCO3)c1 [Compound C255, 4-(3,5-dimethoxyphenyl)-5-(6-benzomorpholinyl)oxazole] | 175 to 178 | –
10 | COc1cc(OC)cc(-c2ncoc2-c2ccc(N(C)C)c(N)c2)c1 [Compound C113, 4-(3,5-dimethoxyphenyl)-5-(3-amino-4-dimethylaminophenyl)oxazole] | 111.7 to 113.5 | –
11 | COc1ccc(-c2c(-c3cc(OC)c(OC)c(OC)c3)ncn2-c2cc(OC)c(OC)c(OC)c2)cc1O [Compound C105, 5-(3-hydroxy-4-methoxyphenyl)-4-(3,4,5-trimethoxyphenyl)-1-(3,4,5-trimethoxyphenyl)imidazole] | – | IC50 (K562; Homo sapiens, K562, 72 h): 8.9 nM; IC50 (MCF-7; Homo sapiens, MCF7, 72 h): 21 nM; IC50 (HCT-116; Homo sapiens, HCT-116, 72 h): 151 nM; IC50 (NCI-H460; Homo sapiens, NCI-H460, 72 h): 21 nM
12 | COc1ccc(-c2ocnc2-c2cc(OC)c(O)c(OC)c2)cc1N [CN05, 4-(3,5-dimethoxy-4-hydroxyphenyl)-5-(3-amino-4-methoxyphenyl)oxazole] | 101.2 to 102 | –
13 | COc1ccc(-c2ncn(-c3cc(OC)c(OC)c(OC)c3)c2-c2cc(OC)c(OC)c(OC)c2)cc1OC [Compound C104, 5-(3,4,5-trimethoxyphenyl)-4-(3,4-dimethoxyphenyl)-1-(3,4,5-trimethoxyphenyl)imidazole] | 159.5 to 161 | –
14 | COc1cc(OC)cc(-c2ncoc2-c2ccc(OC(F)(F)F)c(O)c2)c1 [Compound C142, 4-(3,5-dimethoxyphenyl)-5-(3-hydroxy-4-trifluoromethoxyphenyl)oxazole] | – | IC50 (K562; Homo sapiens, K562, 72 h): 4.2 nM; IC50 (MCF-7; Homo sapiens, MCF7, 72 h): 11.3 nM; IC50 (HCT-116; Homo sapiens, HCT-116, 72 h): 416 nM; IC50 (NCI-H460; Homo sapiens, NCI-H460, 72 h): 62 nM; IC50 (DU-145; Homo sapiens, DU-145, 72 h): 4.1 nM
15 | COc1cc(-c2ncn(-c3cc(OC)c(OC)c(OC)c3)c2-c2cc(OC)c(OC)c(OC)c2)cc(OC)c1OC [Compound C107, 5-(3,4,5-trimethoxyphenyl)-4-(3,4,5-trimethoxyphenyl)-1-(3,4,5-trimethoxyphenyl)imidazole] | 168.8 to 170.9 | –
16 | COc1ccc(-c2[nH]cnc2-c2cc(OC)c(N)c(OC)c2)cc1F [CN10, 4-(3,5-dimethoxy-4-aminophenyl)-5-(3-fluoro-4-methoxyphenyl) imidazole] | 100.8 to 102.6 | –
17 | COc1cc(OC)cc(-c2ncn(-c3cc(OC)c(OC)c(OC)c3)c2-c2ccc(OC)c(F)c2)c1 [Compound C091, 5-(3-fluoro-4-methoxyphenyl)-4-(3,5-dimethoxyphenyl)-1-(3,4,5-trimethoxyphenyl)imidazole] | 157 to 158.4 | –
18 | COc1ccc(-c2ocnc2-c2cc(OC)c(Cl)c(OC)c2)cc1N [CN21, 4-(3,5-dimethoxy-4-chlorophenyl)-5-(3-amino-4-methoxyphenyl)oxazole] | 146.2 to 148.1 | –

Row | SMILES | melting point [°C] | other results
19 | COc1cc(-c2ncn(CCO)c2-c2ccc(N(CCCl)CCCl)cc2)cc(OC)c1OC [Compound C248] | – | IC50 (K562; 72 hours): 11.2 nM; IC50 (MCF-7; 72 hours): 6.9 nM; IC50 (HCT-116; 72 hours): 312 nM; IC50 (NCI-H460; 72 hours): 10.3 nM; IC50 (DU-145; 72 hours): > 300 nM
20 | COc1ccc(-c2[nH]cnc2-c2cc(OC)c([N+](=O)[O-])c(OC)c2)cc1O [CN16, 4-(3,5-dimethoxy-4-nitrophenyl)-5-(3-hydroxy-4-methoxyphenyl)imidazole] | 147.7 to 149 | –
21 | COc1ccc(-c2[nH]cnc2-c2cc(OC)c(N)c(OC)c2)cc1N [CN19, 4-(3,5-dimethoxy-4-aminophenyl)-5-(3-amino-4-methoxyphenyl) imidazole] | 139.7 to 142.1 | –
22 | COc1cc(OC)cc(-c2nc[nH]c2-c2ccc(OC(F)(F)F)c(N)c2)c1 [Compound C152, 4-(3,5-dimethoxyphenyl)-5-(3-amino-4-trifluoromethoxyphenyl)imidazole] | – | IC50 (K562; Homo sapiens, K562, 72 h): 6.8 nM; IC50 (MCF-7; Homo sapiens, MCF7, 72 h): 10.2 nM; IC50 (HCT-116; Homo sapiens, HCT-116, 72 h): 34 nM; IC50 (NCI-H460; Homo sapiens, NCI-H460, 72 h): > 300 nM
23 | COc1ccc(-c2ocnc2-c2cc(OC)c([N+](=O)[O-])c(OC)c2)cc1O [CN07, 4-(3,5-dimethoxy-4-nitrophenyl)-5-(3-hydroxy-4-methoxyphenyl)oxazole] | 186.2 to 188.4 | –
24 | COc1ccc(-c2[nH]cnc2-c2cc(OC)c(O)c(OC)c2)cc1N [CN14, 4-(3,5-dimethoxy-4-hydroxyphenyl)-5-(3-amino-4-methoxyphenyl)imidazole] | 148.5 to 149.9 | –
25 | COc1ccc(-c2[nH]cnc2-c2cc(OC)c(O)c(OC)c2)cc1F [CN12, 4-(3,5-dimethoxy-4-hydroxyphenyl)-5-(3-fluoro-4-methoxyphenyl) imidazole] | 124.7 to 127 | –
26 | COc1ccc(-c2ocnc2-c2cc(OC)c(Br)c(OC)c2)cc1N [CN04, 4-(3,5-dimethoxy-4-bromophenyl)-5-(3-amino-4-methoxyphenyl)oxazole] | 179.8 to 183.9 | –
27 | COc1ccc(-c2ocnc2-c2cc(OC)c(N)c(OC)c2)cc1O [CN08, 4-(3,5-dimethoxy-4-aminophenyl)-5-(3-hydroxy-4-methoxyphenyl)oxazole] | 126 to 129.6 | –
28 | COc1ccc(-c2ocnc2-c2cc(OC)c(F)c(OC)c2)cc1N [CN20, 4-(3,5-dimethoxy-4-fluorophenyl)-5-(3-amino-4-methoxyphenyl)oxazole] | 139.7 to 142.1 | –
29 | COc1cc(OC)cc(-c2ncoc2-c2ccc(N)cc2)c1 [Compound C112, 4-(3,5-dimethoxyphenyl)-5-(4-aminophenyl)oxazole] | 142 to 146 | –
30 | COc1ccc(-c2[nH]cnc2-c2cc(OC)c(Br)c(OC)c2)cc1O [CN11, 4-(3,5-dimethoxy-4-bromophenyl)-5-(3-hydroxy-4-methoxyphenyl) imidazole] | 184.7 to 187 | –
31 | COc1ccc(-c2ocnc2-c2cc(OC)c(N)c(OC)c2)cc1F [CN01, 4-(3,5-dimethoxy-4-aminophenyl)-5-(3-fluoro-4-methoxyphenyl)oxazole] | 100.8 to 102.6 | –
32 | COc1ccc(-c2[nH]cnc2-c2cc(OC)c(Br)c(OC)c2)cc1N [CN13, 4-(3,5-dimethoxy-4-bromophenyl)-5-(3-amino-4-methoxyphenyl)imidazole] | 159.7 to 162 | –
33 | COc1ccc(-c2[nH]cnc2-c2cc(OC)c(N)c(OC)c2)cc1O [CN17, 4-(3,5-dimethoxy-4-aminophenyl)-5-(3-hydroxy-4-methoxyphenyl) imidazole] | 141.8 to 143.7 | –
34 | COc1cc(OC)cc(-c2ncoc2-c2ccc(NC(C)=O)cc2)c1 [Compound C109, 5-(4-acetamidophenyl)-4-(3,5-dimethoxyphenyl)oxazole] | 140.1 to 143.2 | –
35 | COc1ccc(-c2[nH]cnc2-c2cc(OC)c(O)c(OC)c2)cc1O [CN15, 4-(3,5-dimethoxy-4-hydroxyphenyl)-5-(3-hydroxy-4-methoxyphenyl)imidazole] | 171.5 to 173 | –
36 | COc1cc(OC)cc(-c2nc[nH]c2-c2ccc(N(C)C)cc2)c1 [Compound C130, 4-(3,5-dimethoxyphenyl)-5-(4-dimethylaminophenyl)imidazole] | – | IC50 (K562; Homo sapiens, K562, 72 h): 23 nM; IC50 (K562; 72 hours): 21.3 nM; IC50 (HCT-116; Homo sapiens, HCT-116, 72 h): 25 nM; IC50 (NCI-H460; Homo sapiens, NCI-H460, 72 h): 350 nM; IC50 (NCI-H460; 72 hours): > 300 nM
